This is an account of results in publication PMC8151276, “An Integrated Approach toward NanoBRET Tracers for Analysis of GPCR Ligand Engagement” (Molecules, 2021).

Each structure is given as a SMILES string.

One experiment addresses T1, HTR1F (Homo sapiens, UniProt P30939).
T1 construct: purchased Promega (in-house HiBiT-GPCR construct library, NanoBRET)
T1 sequence (P30939 1-366): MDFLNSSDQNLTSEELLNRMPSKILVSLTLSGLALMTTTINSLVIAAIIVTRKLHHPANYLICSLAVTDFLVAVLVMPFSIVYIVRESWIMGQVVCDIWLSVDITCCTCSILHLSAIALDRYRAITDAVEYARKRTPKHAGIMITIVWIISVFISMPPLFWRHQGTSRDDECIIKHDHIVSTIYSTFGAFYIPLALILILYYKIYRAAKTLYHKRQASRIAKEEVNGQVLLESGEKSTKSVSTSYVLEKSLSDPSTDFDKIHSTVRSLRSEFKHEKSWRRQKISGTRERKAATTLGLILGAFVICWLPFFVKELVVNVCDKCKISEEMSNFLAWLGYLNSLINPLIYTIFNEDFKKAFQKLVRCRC
Kind of experiment: NanoBRET screen HiBiT-HTR1F in HEK293. Type of experiment: binding. The method, then:
(§1) Each tracer candidate was screened across the entire library of HiBiT-GPCR constructs using NanoBRET as the detection modality. As depicted in Figure 4A, the specificity of interactions was evaluated through decrease in BRET due to competitive displacement of a bound tracer by excess parental compound. Each tracer was analyzed for binding to each HiBiT-GPCR fusion in the absence and in the presence of competing parental compound. Briefly, HEK293 cells were transfected with HiBiT-GPCR constructs diluted into promoterless DNA to reduce expression and maximize translocation to the cell surface. Each tracer candidate was then screened at concentrations of 1 μM and 0.1 μM across cells expressing these fusions. Cells were treated for 1.5 h with tracer either alone or in the presence of 20 μM competing parental compound (i.e., control). BRET was measured upon addition of purified LgBiT and subsequent complementation with HiBiT genetically fused to a GPCR. The specificity of interactions was assessed through a decrease in BRET signal due to competitive displacement of the bound tracer. To further gauge the robustness of these interactions, the fold response over the control (i.e., BRETtracer/BRETcontrol) was calculated. We chose a 1.5-fold response, which translates to ≥7-fold signal over noise as the minimal threshold required to score an interaction as positive.
(§2) HiBiT-GPCR DNA constructs were diluted in 10 mM Tris pH 8 to a final concentration of 0.01 μg/μL, arrayed in 96-well plates and stored at −20 °C. For transfection, HEK293 cells were suspended in Opti-MEM (without phenol red) supplemented with 2% fetal bovine serum (Seradigm) and 100 units/mL penicillin–streptomycin (Gibco) at a final concentration of 220,000 cells/mL and dispensed into white 96-well plates at 90 μL/well. Subsequent transfections and screens were carried using an Agilent Bravo Automated Liquid Handling Platform. First, the 96-well HiBiT DNA arrays were diluted 25-fold in Opti-MEM (without serum or phenol red) to a final concentration of 0.0004 μg/μL and 20 μL of the diluted DNAs were transferred into new 96-well plates. Next, promoterless carrier DNA (1 μg/μL) was diluted 25-fold (0.04 μg/μL) and then dispensed into the diluted arrays at 20 μL/well. Following brief mixing, Viafect transfection reagent (Promega) diluted 16-fold into Opti-MEM was dispensed into the plates at 40 μL/well. After mixing by pipetting, plates were incubated for 10 min on the pipetting station deck. The DNA-transfection reagent complexes were then added to plates containing cells. To facilitate the screen, 10 μL of DNA-transfection reagent complexes were added in duplicates to the top 4 and bottom 4 rows, resulting in two identical 48-well arrays per plate. Plates with transfected cells were incubated for 18–20 h at 37 °C/5% CO2. A screen of each tracer across the entire library using two different concentrations requires duplicate plates of transfected cells. Depending on the number of tracers being screened, transfections can be scaled up using the same ratios. The next day, for each tracer, four 20× screening solutions in tracer dilution buffer (Promega) were prepared: two duplicates at final concentration of 20 μM and two duplicates at a final concentration of 2 μM. […] The four resulting solutions were diluted 4-fold in Opti-MEM without serum or phenol red to generate 5× solutions (5 µM and 0.5 µM tracer +/− 100 μM competing compound). To screen the library, a BioTek MultiFlo FX liquid dispenser was used to dispense 22.5 µL of tracer solution to the top 4 rows and 22.5 µL tracer + competing compound solution to the 4 bottom rows. Plates were briefly mixed on an orbital shaker and incubated for 1.5 h at room temperature. […] Plates were briefly mixed on an orbital shaker and incubated for 15 min to allow complementation.

The target of another experiment is T2, DRD1 (Homo sapiens, UniProt P21728).
T2 construct: purchased Promega (in-house HiBiT-GPCR construct library, NanoBRET)
In words: NanoBRET screen HiBiT-DRD1 in HEK293. Type of experiment: binding. The procedure:
as §1, §2

[1] abbreviates: tracer at 0.1μM, listed as amitriptyline-b-2-NB590.

T2 sequence (P21728 whole entry): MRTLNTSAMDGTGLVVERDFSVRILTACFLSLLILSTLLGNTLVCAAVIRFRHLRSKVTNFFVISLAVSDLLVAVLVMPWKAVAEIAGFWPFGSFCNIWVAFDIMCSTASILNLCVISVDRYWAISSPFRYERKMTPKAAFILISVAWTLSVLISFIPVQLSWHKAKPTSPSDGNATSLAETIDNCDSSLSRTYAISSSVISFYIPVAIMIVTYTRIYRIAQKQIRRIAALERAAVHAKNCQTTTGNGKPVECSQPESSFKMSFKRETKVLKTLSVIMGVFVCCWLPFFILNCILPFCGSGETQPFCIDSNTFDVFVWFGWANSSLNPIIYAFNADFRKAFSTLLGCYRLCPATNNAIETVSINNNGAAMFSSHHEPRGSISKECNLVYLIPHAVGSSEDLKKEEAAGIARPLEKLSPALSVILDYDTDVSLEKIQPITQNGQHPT

On to `COc1ccc2[nH]c(-c3ccc(CNC(=O)CCOCCOCCOCCOCCNC(=O)CCc4ccc5n4[B-](F)(F)[N+]4=C(c6ccc[nH]6)C=CC4=C5)cc3)c(CCNC(C)=O)c2n1` [AzomelatoninICO9-2-NB590], for which the “NanoBRET Fold Response” value at HTR1F (0.1μM tracer) is recorded as 0.92; on HTR1F (1μM tracer) it was 0.95; at DRD1 (0.1μM tracer), 0.98; on DRD1 (1μM tracer), 0.94.
As for `CC(C)N(CC[C@H](c1ccccc1)c1cc(CCNC(=O)CCOCCOCCOCCOCCNC(=O)CCc2ccc3n2[B-](F)(F)[N+]2=C(c4ccc[nH]4)C=CC2=C3)ccc1O)C(C)C` [Tolterodine-2-NB590], the “NanoBRET Fold Response” value on HTR1F (HTR1F, tracer 0.1μM) was found to be 0.90; on HTR1F (HTR1F, tracer 1μM), 1.13; on DRD1 (DRD1, tracer 0.1μM), 0.94; at DRD1 (DRD1, tracer 1μM), 1.01.
The matching figures for `N#CN=C(NCCCOc1cccc(CN2CCCCC2)c1)NCCNC(=O)CCOCCOCCOCCOCCNC(=O)CCc1ccc2n1[B-](F)(F)[N+]1=C(c3ccc[nH]3)C=CC1=C2` [Aminopotentidine-2-NB590]: 1.07, 1.05, 1.04 and 1.06.
In the case of `COc1ccc2c(n1)c(CCNC(C)=O)cn2CCNC(=O)CCc1ccc2n1[B-](F)(F)[N+]1=C(c3ccc[nH]3)C=CC1=C2` [Azamelatonin-1-NB590], the “NanoBRET Fold Response” value turned out to be 0.79 at HTR1F (0.1μM tracer), 0.79 at HTR1F (1μM tracer), 0.92 at DRD1 (0.1μM tracer) and 0.96 at DRD1 (1μM tracer).
For `CN(CCC=C1c2ccccc2CCc2ccccc21)C(=O)CCOCCOCCOCCOCCNC(=O)CCc1ccc2n1[B-](F)(F)[N+]1=C(c3ccc[nH]3)C=CC1=C2` [Amitriptyline-e-2-NB590], the “NanoBRET Fold Response” value at HTR1F (tracer at 1μM) amounted to 1.02; on DRD1 (tracer at 1μM), 1.12.
Take `N#CN/C(=N\CCNC(=O)c1ccc(N)cc1)NCCCOc1cccc(CN2CCCCC2)c1` [Aminopotentidine (unmodified)]: the “NanoBRET Fold Response” value at HTR1F (HTR1F, other tracers/Aminopotentidine (unmodified), 0.1μM) is 1.04; on HTR1F (HTR1F, other tracers/Aminopotentidine (unmodified), 1μM), 1.21; at DRD1 (DRD1, other tracers/Aminopotentidine (unmodified), 0.1μM) it was 1.10; on DRD1 (DRD1, other tracers/Aminopotentidine (unmodified), 1μM), 1.11.
Take `CC(C)N(CC[C@H](c1ccccc1)c1cc(CCNC(=O)c2ccc(CNC(=O)CCc3ccc4n3[B-](F)(F)[N+]3=C(c5ccc[nH]5)C=CC3=C4)cc2)ccc1O)C(C)C` [Tolterodine-BZ-NB590]: the “NanoBRET Fold Response” value at HTR1F (HTR1F, tracer 0.1μM) was 1.24; on HTR1F (HTR1F, tracer 1μM), 1.63; at DRD1 (DRD1, tracer 0.1μM), 1.28; at DRD1 (DRD1, tracer 1μM), 1.39.
The matching figures for `O=C(CCc1ccc2n1[B-](F)(F)[N+]1=C(c3ccc[nH]3)C=CC1=C2)NCCOCCOCCNC(=O)OCCOCCN1CCN(C2=Nc3ccccc3Sc3ccccc32)CC1` [Quetiapine-a-2-NB590]: 1.01, 0.95, 1.65 and 1.97.
Consider `Cc1cc2c(s1)Nc1ccccc1N=C2N1CCN(CCCNC(=O)CCOCCOCCOCCOCCNC(=O)CCc2ccc3n2[B-](F)(F)[N+]2=C(c4ccc[nH]4)C=CC2=C3)CC1` [Olanzapine-a-2-NB590], for which the “NanoBRET Fold Response” value was 1.01 at HTR1F (HTR1F, tracer 0.1μM); 1.21 at HTR1F (HTR1F, tracer 1μM); 2.04 on DRD1 (DRD1, tracer 0.1μM); 3.08 at DRD1 (DRD1, tracer 1μM).
Take `CN(C)CCC=C1c2ccccc2CCc2ccc(C(=O)NCCNC(=O)CCOCCOCCOCCOCCNC(=O)CCc3ccc4n3[B-](F)(F)[N+]3=C(c5ccc[nH]5)C=CC3=C4)cc21` [Amitriptyline-b-2-NB590]: the “NanoBRET Fold Response” value at HTR1F (setting [1]) worked out at 1.43; on DRD1 (setting [1]), 1.39; on DRD1 (tracer at 1μM, listed as amitriptyline-b-2-NB590), 1.97.
Turning to `O=C(CCOCCOCCOCCOCCNC(=O)CCc1ccc2n1[B-](F)(F)[N+]1=C(c3ccc[nH]3)C=CC1=C2)NCCCN1CCN(C2=Nc3cc(Cl)ccc3Nc3ccccc32)CC1` [Clozapine-a-2-NB590], the “NanoBRET Fold Response” value turned out to be 1.77 at HTR1F (HTR1F, 0.1μM tracer); 2.34 at HTR1F (HTR1F, 1μM tracer); 3.20 at DRD1 (DRD1, 0.1μM tracer); 3.32 at DRD1 (DRD1, 1μM tracer).
Regarding `Cc1nc2n(c(=O)c1CCN1CCC(c3noc4cc(F)ccc34)CC1)CCCC2OC(=O)NCCOCCOCCOCCOCCNC(=O)CCc1ccc2n1[B-](F)(F)[N+]1=C(c3ccc[nH]3)C=CC1=C2` (stereo not drawn) [Risperidone-2-NB590], the “NanoBRET Fold Response” value at HTR1F (HTR1F, tracer 0.1μM) stood at 0.98; at HTR1F (HTR1F, tracer 1μM) it was 1.07; at DRD1 (DRD1, tracer 0.1μM), 2.20; at DRD1 (DRD1, tracer 1μM), 2.38.
